The record followed here is patent publication US9670221B2, “Furopyridines as bromodomain inhibitors” (GlaxoSmithKline Intellectual Property (No.2) Limited, priority 2013, dated 2017).

Structures can show the parent of a compound that is named as a salt.

The assay deals with T1, BRD4 BD1 (Homo sapiens, UniProt O60885, Y390A).
T1 construct: BRD4 (1-477) (Y97A) and (Y390A); made in house; host or cells: E. coli (pET15b vector)
Put plainly: TR-FRET binding assay, BRD4 BD1 (mutant protein). The note with it: BRD4 (1-477) mutant, 10 nM protein, read-out: pIC50 in the BRD4 BD1 assay (converted). How it is done: Time Resolved Fluorescence Resonance Energy Transfer (TR-FRET) Assay
Binding was assessed using a time resolved fluorescent resonance energy transfer binding assay. This utilises a 6 His purification tag at the N-terminal of the proteins as an epitope for an anti-6 His antibody labeled with Europium chelate (PerkinElmer AD0111) allowing binding of the Europium to the proteins which acts as the donor fluorophore. A small molecule, high affinity binder of the bromodomains BRD2, BRD3, BRD4 and BRDT has been labeled with Alexa Fluor647 (Reference Compound X) and this acts as the acceptor in the FRET pair.
Assay Principle: In the absence of a competing compound, excitation of the Europium causes the donor to emit at λ618 nm which excites the Alexa labelled bromodomain binding compound leading to an increased energy transfer that is measurable at λ647 […]. In the presence of a sufficient concentration of a compound that can bind these proteins, the interaction is disrupted leading to a quantifiable drop in fluorescent resonance energy transfer.
The binding of the compounds of formula (I) to Bromodomains BRD2, BRD3, BRD4 and BRDT was assessed using mutated proteins to detect differential binding to either Binding Domain 1 (BD1) or Binding Domain 2 (BD2) on the bromodomain. These single residue mutations in the acetyl lysine binding pocket greatly lower the affinity of the fluoroligand (Reference Compound X) for the mutated domain (>1000 fold selective for the non-mutated domain). Therefore in the final assay conditions, binding of the fluoroligand to the mutated domain cannot be detected and subsequently the assay is suitable to determine the binding of compounds to the single non-mutated bromodomain.
Protein production: Recombinant Human Bromodomains [(BRD2 (1-473) (Y113A) and (Y386A), BRD3 (1-435) (Y73A) and (Y348A) BRD4 (1-477) (Y97A) and (Y390A) and BRDT (1-397) (Y66A) and (Y309A)] were expressed in E. coli cells (in pET15b vector for BRD2/3/4 and in pET28a vector for BRDT) with a 6-His tag at the N-terminal. The His-tagged Bromodomain pellet was resuspended in 50 mM HEPES (pH7.5), 300 mM NaCl, 10 mM imidazole & 1 μl/mL protease inhibitor cocktail and extracted from the E. coli cells using sonication and purified using a nickel sepharose high performance column, the proteins were washed and then eluted with a linear gradient of 0-500 mM imidazole with buffer 50 mM HEPES (pH7.5), 150 mM NaCl, 500 mM imidazole, over 20 column volumes. Final purification was completed by Superdex 200 prep grade size exclusion column. Purified protein was stored at −80° C. in 20 mM HEPES pH 7.5 and 100 mM NaCl. Protein identity was confirmed by peptide mass fingerprinting and predicted molecular weight confirmed by mass spectrometry.
Protocol for Bromodomain BRD2, 3, 4 and T, BD1^+BD2 mutant assays: All assay components were dissolved in buffer composition of 50 mM HEPES pH7.4, 50 mM NaCl, 5% Glycerol, 1 mM DTT and 1 mM CHAPS. The final concentration of bromodomain proteins were 10 nM and the Alexa Fluor647 ligand was at Kd. These components were premixed and 5 μl of this reaction mixture was added to all wells containing 50 nl of various concentrations of test compound or DMSO vehicle (0.5% DMSO final) in Greiner 384 well black low volume microtitre plates and incubated in dark for 30 minutes at room temperature. 5 μl of detection mixture containing 1.5 nM final concentration anti-6His Europium chelate was added to all wells and a further dark incubation of at least 30 minutes was performed. Plates were then read on the Envision platereader, (λex=317 nm, donor λem=615 nm; acceptor λem=665 nm; Dichroic LANCE dual). Time resolved fluorescent intensity measurements were made at both emission wavelengths and the ratio of acceptor/donor was calculated and used for data analysis. All data was normalized to the mean of 16 high (inhibitor control—Example 11 of WO 2011/054846A1) and 16 low (DMSO) control wells on each plate. […]
As to `C[C@@H]1CN(S(C)(=O)=O)CCN1Cc1cc2c(=O)n(C)cc(-c3ccncc3O)c2o1` [Example 60, (R)-7-(3-hydroxypyridin-4-yl)-5-methyl-2-((2-methyl-4-(methylsulfonyl)piperazin-1-yl)methyl)furo[3,2-c]pyridin-4(5H)-one], the IC50 is at most 100 nM. The result for `C[C@@H]1CN(S(C)(=O)=O)CCN1Cc1cc2c(=O)n(C)cc(-c3ccncc3OCC3CC3(F)F)c2o1` (stereo partly drawn) [Example 61, 7-(3-((2,2-difluorocyclopropyl)methoxy)pyridin-4-yl)-5-methyl-2-(((R)-2-methyl-4-(methylsulfonyl)piperazin-1-yl)methyl)furo[3,2-c]pyridin-4(5H)-one] reads at most 10 nM; that for `Cl.[2H]C([2H])([2H])n1cc(-c2ccnc(NC(C)=O)c2)c2oc(CN3CCN(S(C)(=O)=O)C[C@H]3C)cc2c1=O` [Example 62, (R)-N-(4-(5-(^2H3)methyl-2-((2-methyl-4-(methylsulfonyl)piperazin-1-yl)methyl)-4-oxo-4,5-dihydrofuro[3,2-c]pyridin-7-yl)pyridin-2-yl)acetamide], at most 100 nM; that for `C[C@@H]1CN(S(C)(=O)=O)CCN1Cc1cc2c(=O)n(C)cc(-c3cccc(NC(=O)CCCCN)c3)c2o1` [Example 64, (R)-5-amino-N-(3-(5-methyl-2-((2-methyl-4-(methylsulfonyl)piperazin-1-yl)methyl)-4-oxo-4,5-dihydrofuro[3,2-c]pyridin-7-yl)phenyl)pentanamide hydrochloride], at most 100 nM. For the molecule `CC(=O)Nc1cc(-c2cn(C)c(=O)c3cc(C(C)(C)N4CCN(S(C)(=O)=O)CC4)oc23)ccn1` [Example 65, N-(4-(5-methyl-2-(2-(4-(methylsulfonyl)piperazin-1-yl)propan-2-yl)-4-oxo-4,5-dihydrofuro[3,2-c]pyridin-7-yl)pyridin-2-yl)acetamide], the IC50 was at most 100 nM. The result for `COCCOc1cnccc1-c1cn(C)c(=O)c2cc(CN3CCN(S(C)(=O)=O)C[C@H]3C)oc12` [Example 66, (R)-7-(3-(2-methoxyethoxy)pyridin-4-yl)-5-methyl-2-((2-methyl-4-(methylsulfonyl)piperazin-1-yl)methyl)furo[3,2-c]pyridin-4(5H)-one] reads at most 100 nM; that for `Cn1cc(-c2ccc(C(=O)O)cc2OCC2CC2)c2oc(CN3CCN(S(C)(=O)=O)CC3)cc2c1=O` [Example 67, 3-(cyclopropylmethoxy)-4-(5-methyl-2-((4-(methylsulfonyl)piperazin-1-yl)methyl)-4-oxo-4,5-dihydrofuro[3,2-c]pyridin-7-yl)benzoic acid], at most 10 nM. Consider `CCNC(=O)c1ccc(-c2cn(C)c(=O)c3cc(CN4CCN(S(C)(=O)=O)CC4)oc23)c(OCC2CC2)c1` [Example 68, 3-(cyclopropylmethoxy)-N-ethyl-4-(5-methyl-2-((4-(methylsulfonyl)piperazin-1-yl)methyl)-4-oxo-4,5-dihydrofuro[3,2-c]pyridin-7-yl)benzamide], for which the IC50 is at most 100 nM. `C[C@@H]1CN(S(C)(=O)=O)CCN1Cc1cc2c(=O)n(C)cc(-c3ccncc3OCC3CCOC3)c2o1` (stereo partly drawn) [Example 69, 5-methyl-2-(((R)-2-methyl-4-(methylsulfonyl)piperazin-1-yl)methyl)-7-(3-((tetrahydrofuran-3-yl)methoxy)pyridin-4-yl)furo[3,2-c]pyridin-4(5H)-one]: the IC50 is at most 100 nM. Take `C[C@@H]1CN(S(C)(=O)=O)CCN1Cc1cc2c(=O)n(C)cc(-c3ccncc3OCC3CCCO3)c2o1` (stereo partly drawn) [Example 70, 5-methyl-2-(((R)-2-methyl-4-(methylsulfonyl)piperazin-1-yl)methyl)-7-(3-((tetrahydrofuran-2-yl)methoxy)pyridin-4-yl)furo[3,2-c]pyridin-4(5H)-one]: the IC50 is at most 100 nM. On to `Cn1cc(-c2ccncc2OCC2CC2)c2oc(CN3CCNC(=O)C3)cc2c1=O` [Example 71, 7-(3-(cyclopropylmethoxy)pyridin-4-yl)-5-methyl-2-((3-oxopiperazin-1-yl)methyl)furo[3,2-c]pyridin-4(5H)-one hydrochloride], for which the IC50 was at most 100 nM. The result for `C[C@@H]1CN(S(C)(=O)=O)CCN1Cc1cc2c(=O)n(C)cc(-c3ccncc3OCCF)c2o1` [Example 72, (R)-7-(3-(2-fluoroethoxy)pyridin-4-yl)-5-methyl-2-((2-methyl-4-(methylsulfonyl)piperazin-1-yl)methyl)furo[3,2-c]pyridin-4(5H)-one] reads at most 100 nM.

As to `C[C@@H]1CN(S(C)(=O)=O)CCN1Cc1cc2c(=O)n(C)cc(-c3ccncc3OC3CC3)c2o1` [Example 73, (R)-7-(3-cyclopropoxypyridin-4-yl)-5-methyl-2-((2-methyl-4-(methylsulfonyl)piperazin-1-yl)methyl)furo[3,2-c]pyridin-4(5H)-one], the IC50 was at most 100 nM. With `C[C@@H]1CN(S(C)(=O)=O)CCN1Cc1cc2c(=O)n(C)cc(-c3ccncc3OCC(F)F)c2o1` [Example 74, (R)-7-(3-(2,2-difluoroethoxy)pyridin-4-yl)-5-methyl-2-((2-methyl-4-(methylsulfonyl)piperazin-1-yl)methyl)furo[3,2-c]pyridin-4(5H)-one], the IC50 was at most 100 nM. Under `CN1CCN(Cc2cc3c(=O)n(C)cc(-c4ccncc4OCC4CC4)c3o2)CC1=O` [Example 76, 7-(3-(cyclopropylmethoxy)pyridin-4-yl)-5-methyl-2-((4-methyl-3-oxopiperazin-1-yl)methyl)furo[3,2-c]pyridin-4(5H)-one hydrochloride] stands at most 100 nM; under `COC(C)COc1cnccc1-c1cn(C)c(=O)c2cc(CN3CCN(S(C)(=O)=O)C[C@H]3C)oc12` (stereo partly drawn) [Example 78, 7-(3-(2-methoxypropoxy)pyridin-4-yl)-5-methyl-2-(((R)-2-methyl-4-(methylsulfonyl)piperazin-1-yl)methyl)furo[3,2-c]pyridin-4(5H)-one], at most 100 nM; under `CC(=O)Nc1cc(-c2cn(C)c(=O)c3cc(CN4CCNC(=O)CC4)oc23)ccn1` [Example 82, N-(4-(5-methyl-4-oxo-2-((5-oxo-1,4-diazepan-1-yl)methyl)-4,5-dihydrofuro[3,2-c]pyridin-7-yl)pyridin-2-yl)acetamide], at most 100 nM.

With `CC(=O)Nc1cc(-c2cn(C)c(=O)c3cc(CN4CCS(=O)(=O)CC4)oc23)ccn1` [Example 87, N-(4-(2-((1,1-dioxidothiomorpholino)methyl)-5-methyl-4-oxo-4,5-dihydrofuro[3,2-c]pyridin-7-yl)pyridin-2-yl)acetamide], the IC50 is at most 100 nM.

In the case of `CC(=O)Nc1cc(-c2cn(C)c(=O)c3cc(CN4CC(C)N(S(C)(=O)=O)CC4C)oc23)ccn1` (stereo not drawn) [Example 96, N-(4-(2-((2,5-dimethyl-4-(methylsulfonyl)piperazin-1-yl)methyl)-5-methyl-4-oxo-4,5-dihydrofuro[3,2-c]pyridin-7-yl)pyridin-2-yl)acetamide], the IC50 was at most 100 nM. The result for `CC(=O)Nc1cc(-c2cn(C)c(=O)c3cc(CN4CCC(=O)NCC4C)oc23)ccn1` (stereo not drawn) [Example 100, N-(4-(5-methyl-2-((2-methyl-5-oxo-1,4-diazepan-1-yl)methyl)-4-oxo-4,5-dihydrofuro[3,2-c]pyridin-7-yl)pyridin-2-yl)acetamide] reads at most 100 nM. Under `CC(=O)Nc1cc(-c2cn(C)c(=O)c3cc(CN4CCS(=O)(=O)CC4C)oc23)ccn1` (stereo not drawn) [Example 102, N-(4-(5-methyl-2-((3-methyl-1,1-dioxidothiomorpholino)methyl)-4-oxo-4,5-dihydrofuro[3,2-c]pyridin-7-yl)pyridin-2-yl)acetamide] stands at most 100 nM.
